Experimental data: patent US20170049782A1 (SK CHEMICALS CO., LTD., priority 2014, published 2017)
Like-named read-outs stand apart in the source and are kept apart here.

Legend:
[1] = Solubility / dissolved fraction of active ingredient (I) in water (background); format: physicochemical
Text: At single administration and repetitive administration, there is a difference in blood concentration depending on whether taking food or not, and food intake is blamed for causing the difference (Xia et al., British Journal of Clinical Pharmacology, 2009, 68:1, p 77-88). This is a reason for decrease of drug efficacy to patients taking food irregularly, and a negative cause, which may make patients feel uncomfortable for taking drug. […] Thus, its bioavailability reach to 100% when it is administered with food because residual insoluble drugs are absorbed by oil content present in the food and a surfactant such as bile acid secreted in the body (Samama et al. Thrombosis Journal 2013, 11:11, p 1-7).

[2] = cited from earlier work

Compound: O=C(NC[C@H]1CN(c2ccc(N3CCOCC3=O)cc2)C(=O)O1)c1ccc(Cl)s1 [active ingredient (I)]
- drug dissolved in dissolution solution ([1]; 10 mg in 900 ml): ≥ 90%
- drug dissolved in dissolution solution ([1]; 20 mg in 900 ml): 50%
- bioavailability ([2]; 10 mg, regardless of a meal): 100%
- bioavailability ([2]; 20 mg, administered before a meal / under fasted condition): about 66%
- bioavailability ([2]; 20 mg, administered with food): 100%
